Assay results from publication PMC6238727 (2018).
Entries after “also recorded” stand apart in the source; their conditions may differ. Blank lines part the entries; values can stand above or below the substance they belong to.

Tests used:
Neutrophil elastase = Neutrophil elastase at 30 nM; conditions: human, up to 12 min
Thrombin [1] = assay: Recombinant human Thrombin at 5U/ml
MMP = assay: incubation with MMP (which MMP is not given); conditions: up to 10 min
plasmin [2] = assay: plasmin
MMP-2 [3] = assay: Recombinant human catalytic domain MMP-2 at 30nM
MMP-13 [4] = assay: Recombinant human catalytic domain MMP-13 at 30nM
[5] = human tissue homogenate (healthy and fibrotic lung tissue)
[6] = healthy (homogenised) human lung tissue
thrombin [7] = assay: thrombin (Sigma Aldrich) (5 U ml^–1) in MMP buffer (10 mM CaCl2, Tris-HCl, NaCl, pH 7.5); conditions: human, up to 60 min
MMP-9 + Thrombin = MMP-9 + Thrombin together in MMP buffer; conditions: human, up to 60 min
[8] = lavage fluid collected from the LPS murine model
Plasmin [9] = assay: Plasmin (Sigma Aldrich) (30 nM) in MMP buffer; conditions: up to 60 min
Factor Xa = Factor Xa (Sigma Aldrich) (500 nM) in MMP buffer; conditions: up to 60 min
[10] = platelet rich plasma (PRP) collected from the LPS murine model
MMP-2 [11] = assay: recombinant MMP enzymes (active domains), 30 nM, in MMP buffer; conditions: up to 60 min
MMP-9 = assay: as above; conditions: human, up to 60 min
MMP-13 [12] = assay: as above; conditions: up to 60 min
[13] = excised human carotid (atherosclerotic) plaque, sliced in half lengthwise, in a well with probe solution; conditions: up to 60 min

- not cleaved (Neutrophil elastase): remained intact
Substance: -P-F-G-L-K-ßA-
- not cleaved (Thrombin [1]): Thrombin did not cleave any of the sequences

- not cleaved (plasmin [2]): totally plasmin resistant
- not cleaved (neutrophil lysate): not cleaved with Neutrophil lysate
- not cleaved (Neutrophil elastase): stable to Elastase
- not cleaved (Thrombin [1]): not cleaved with Thrombin
- cleaved bond (MMP-2 [3]): G-Nle
- cleaved bond (MMP-13 [4]): G-Nle
- cleaved bond [5]: G-Nle
Substance: -P-F-G-Nle-K-ßA-

- cleaved bond (plasmin [2]): K-G
- not cleaved (neutrophil lysate): not cleaved with Neutrophil lysate
- not cleaved (Neutrophil elastase): stable to Elastase
- not cleaved (Thrombin [1]): not cleaved with Thrombin
- cleaved bond (MMP-2 [3]): G-L
- cleaved bond (MMP-13 [4]): G-L
- cleaved bond [5]: G-L
Substance: -G-P-K-G-L-K-G-

- not cleaved (Neutrophil elastase): remained intact
Substance: -P-Cha-G-M-H-G-
- not cleaved (Thrombin [1]): Thrombin did not cleave any of the sequences

- not cleaved (Neutrophil elastase): remained intact
Substance: -P-F-G-M-K-ßA-
- not cleaved (Thrombin [1]): Thrombin did not cleave any of the sequences

- not cleaved (thrombin [7]): not activated by their target enzymes
Substance: –NleWP(D)RGWR(D)L– | –PFGNleKβA– | –K-PEG2–

- not cleaved (Neutrophil elastase): remained intact
Substance: -P-Cha-G-M-K-ßA-G-
- not cleaved (Thrombin [1]): Thrombin did not cleave any of the sequences

- not cleaved (Neutrophil elastase): remained intact
Substance: -P-Cha-G-M-Y-G-
- not cleaved (Thrombin [1]): Thrombin did not cleave any of the sequences

- cleaved bond (Neutrophil elastase): I-K
Substance: -G-P-K-G-Ile-K-G-
- not cleaved (Thrombin [1]): Thrombin did not cleave any of the sequences

- cleaved bond (MMP-9 + Thrombin): Arg-Gly; also recorded: Gly-Nle
- cleaved bond (MMP-2 [11]): Gly-Nle
- cleaved bond (MMP-9): Gly-Nle
- cleaved bond (MMP-13 [12]): Gly-Nle
- cleaved bond (thrombin [7]): Arg-Gly
- cleaved bond [13]: Arg-Gly; also recorded: Gly-Nle
Substance: –NleWPRGWR(D)L– | –PFGNleKβA– | –K-PEG2–
- not cleaved [8]: not cleaved by murine proteolytic (MMP and Thrombin) enzymes
- not cleaved (Plasmin [9]): completely plasmin and Factor Xa resistant
- not cleaved (Factor Xa): completely plasmin and Factor Xa resistant
- not cleaved [10]: not cleaved by murine proteolytic (MMP and Thrombin) enzymes

The next lines start with the substance.

Substance: -P-Cha-G-M-F-G-
- not cleaved (Neutrophil elastase): remained intact
- not cleaved (Thrombin [1]): Thrombin did not cleave any of the sequences

Substance: -P-Cha-G-M-Y(Me)-G-
- not cleaved (Neutrophil elastase): remained intact
- not cleaved (Thrombin [1]): Thrombin did not cleave any of the sequences

Substance: –NleWPRGWR(D)L– | –PFG(D)NleKβA– | –K-PEG2–
- not cleaved (MMP): not activated by their target enzymes

Substance: PFGNleKA attached to the hydrophilic tail -[PEG2-(D)K]3-NH2
- not cleaved [6]: good solubility and stability as confirmed by MALDI TOF MS and HPLC analysis

Substance: -P-F-G-Ile-K-ßA-
- cleaved bond (Neutrophil elastase): I-K
- not cleaved (Thrombin [1]): Thrombin did not cleave any of the sequences

Substance: -P-Cha-G-M-W-G-
- not cleaved (Neutrophil elastase): remained intact
- not cleaved (Thrombin [1]): Thrombin did not cleave any of the sequences

Substance: -P-Cha-G-M-K-G-
- not cleaved (Neutrophil elastase): remained intact
- not cleaved (Thrombin [1]): Thrombin did not cleave any of the sequences
